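The compound was tested at five concentrations on cells cultured in 96-well plates, with a 48-hour exposure period. At the TGI there is no net growth.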
Tests used:
Experiment in all cases: NCI-60 cell line screen, 48 h
[1] = system: U251 CNS
[2] = system: NCI-H460 lung
[3] = system: OVCAR-8 ovarian
[4] = system: NCI/ADR-RES ovarian
[5] = system: OVCAR-3 ovarian
[6] = system: HCT-116 colon
[7] = system: SF-268 CNS
[8] = system: LOX IMVI melanoma
[9] = system: EKVX NSCLC
[10] = system: SNB-19 CNS
[11] = system: SN12C renal
[12] = system: HOP-62 NSCLC
[13] = system: UACC-257 melanoma
[14] = system: T-47D breast
[15] = system: MCF7 breast
[16] = system: ACHN renal
[17] = system: OVCAR-4 ovarian
[18] = system: A549 NSCLC
[19] = system: KM12 colon
[20] = system: SK-MEL-5 melanoma
[21] = system: 786-0 renal
[22] = system: COLO 205 colon
[23] = system: SNB-75 CNS
[24] = system: SR leukemia
[25] = system: SF-295 CNS
[26] = system: HCT-15 colon
[27] = system: SK-MEL-2 melanoma
[28] = system: MOLT-4 leukemia
[29] = system: TK-10 renal
[30] = system: UO-31 renal
[31] = system: OVCAR-5 ovarian
[32] = system: MALME-3M melanoma
[33] = system: HCC-2998 colon
[34] = system: K-562 leukemia
[35] = system: SK-MEL-28 melanoma
[36] = system: SF-539 CNS
[37] = system: MDA-N
[38] = system: HT29 colon
[39] = system: NCI-H226 lung
[40] = system: NCI-H23 lung
[41] = system: HS 578T breast
[42] = system: NCI-H522 lung
[43] = system: CCRF-CEM leukemia
[44] = system: PC-3 prostate
[45] = system: BT-549 breast
[46] = system: SW-620 colon
[47] = system: UACC-62 melanoma
[48] = system: MDA-MB-435
[49] = system: M14 melanoma
[50] = system: IGROV1 ovarian
[51] = system: RXF 393 renal
[52] = system: MDA-MB-231 breast
[53] = system: CAKI-1 renal
[54] = system: RPMI-8226 leukemia
[55] = system: A498 renal
[56] = system: SK-OV-3 ovarian
[57] = system: HL-60(TB) leukemia
[58] = system: HOP-92 NSCLC
[59] = system: DU-145 prostate

For `CC[n+]1[b-](C(C)(C)C)n(/N=C/C(C)(C)C)[b-](C(C)(C)C)[n+]1CC`, the TGI [1] was > 100 µM, the TGI [2] was > 100 µM and the TGI [3] was > 100 µM. The TGI [4] was > 100 µM, the TGI [5] was > 100 µM and the TGI [6] was > 100 µM. For the same molecule, the TGI [7] was > 100 µM, the TGI [8] was > 100 µM and the TGI [9] was > 100 µM. The TGI [10] was > 100 µM, the TGI [11] was > 100 µM and the TGI [12] was > 100 µM. The TGI [13] was > 100 µM, the TGI [14] was > 100 µM and the TGI [15] was > 100 µM. For the same molecule, the TGI [16] was > 100 µM, the TGI [17] was > 100 µM and the TGI [18] was > 100 µM. The TGI [19] was > 100 µM, the TGI [20] was > 100 µM and the TGI [21] was > 100 µM. The TGI [22] was > 100 µM, the TGI [23] was > 100 µM and the TGI [24] was > 100 µM. The TGI [25] was > 100 µM, the TGI [26] was > 100 µM and the TGI [27] was > 100 µM. For the same molecule, the TGI [28] was > 100 µM, the TGI [29] was > 100 µM and the TGI [30] was > 100 µM. For the same molecule, the TGI [31] was > 100 µM, the TGI [32] was > 100 µM and the TGI [33] was > 100 µM. For the same molecule, the TGI [34] was > 100 µM, the TGI [35] was > 100 µM and the TGI [36] was > 100 µM. For the same molecule, the TGI [37] was > 100 µM, the TGI [38] was > 100 µM and the TGI [39] was > 100 µM. The TGI [40] was > 100 µM, the TGI [41] was > 100 µM and the TGI [42] was > 100 µM. For the same molecule, the TGI [43] was > 100 µM, the TGI [44] was > 100 µM and the TGI [45] was > 100 µM. The TGI [46] was > 100 µM, the TGI [47] was > 100 µM and the TGI [48] was > 100 µM. For the same molecule, the TGI [49] was > 100 µM, the TGI [50] was > 100 µM and the TGI [51] was > 100 µM. For the same molecule, the TGI [52] was > 100 µM and the TGI [53] was > 100 µM.

With `N/C(=N\S(=O)(=O)c1c(C(F)(F)F)cccc1C(F)(F)F)Nc1ccc(Cl)cc1` the TGI [1] was 36 µM, the TGI [2] was > 100 µM and the TGI [3] was 78 µM. The TGI [4] was 50.1 µM, the TGI [5] was > 100 µM and the TGI [6] was > 100 µM. For the same molecule, the TGI [7] was > 100 µM, the TGI [8] was 48.1 µM and the TGI [9] was 36.2 µM. The TGI [10] was > 100 µM, the TGI [11] was 78.1 µM and the TGI [12] was > 100 µM. The TGI [13] was 47.7 µM, the TGI [54] was > 100 µM and the TGI [14] was > 100 µM. For the same molecule, the TGI [55] was 50.6 µM, the TGI [15] was > 100 µM and the TGI [16] was 56 µM. The TGI [17] was > 100 µM, the TGI [18] was > 100 µM and the TGI [19] was > 100 µM. It also gave a TGI [20] of 35.6 µM, a TGI [21] of 74.7 µM and a TGI [22] of 33.1 µM. For the same molecule, the TGI [23] was > 100 µM, the TGI [24] was > 100 µM and the TGI [25] was > 100 µM. The TGI [26] was > 100 µM, the TGI [27] was 29.3 µM and the TGI [28] was > 100 µM. For the same molecule, the TGI [56] was > 100 µM, the TGI [29] was 65 µM and the TGI [57] was 51.9 µM. For the same molecule, the TGI [58] was 43.6 µM, the TGI [30] was 6.35 µM and the TGI [31] was 73.1 µM. For the same molecule, the TGI [32] was 58.4 µM, the TGI [34] was > 100 µM and the TGI [35] was > 100 µM. For the same molecule, the TGI [36] was > 100 µM, the TGI [37] was > 100 µM and the TGI [38] was > 100 µM. The TGI [39] was > 100 µM, the TGI [40] was 30.8 µM and the TGI [41] was 68.6 µM. The TGI [42] was 30.6 µM, the TGI [59] was > 100 µM and the TGI [44] was 25.6 µM. For the same molecule, the TGI [45] was 96 µM, the TGI [46] was > 100 µM and the TGI [47] was 50.5 µM. The TGI [49] was > 100 µM, the TGI [50] was 60.2 µM and the TGI [51] was > 100 µM. It also gave a TGI [52] of 48.6 µM.

Source: PubChem BioAssay (NCI)
